ChEMBL document CHEMBL1201862, “PubChem BioAssay data set” (2004)
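Following 48 hours of exposure in 96-well plates, responses at five concentrations were used to interpolate endpoints linearly. GI50 marks 50% less growth.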 Active and inactive are the calls of the source. Rule as the data show it: active = GI50 up to about 1.1 µM and inactive = higher.

Experiments:
Assay in all cases: NCI tumour cell line growth inhibition, 48 h
SNB-19 = test system: SNB-19
HL-60 = test system: HL-60
U-251 = test system: U-251
OVCAR-4 = test system: OVCAR-4
MOLT-4 = test system: MOLT-4
SK-MEL-5 = test system: SK-MEL-5
OVCAR-5 = test system: OVCAR-5
M14 = test system: M14
NCI-H226 = test system: NCI-H226
T47D = test system: T47D
SF-295 = test system: SF-295
HOP-62 = test system: HOP-62
MCF7 = test system: MCF7
K562 = test system: K562
KM12 = test system: KM12
HCC 2998 = test system: HCC 2998
OVCAR-3 = test system: OVCAR-3
COLO 205 = test system: COLO 205
SR = test system: SR
MDA-N = test system: MDA-N

| SMILES | GI50 (SNB-19) | GI50 (HL-60) | GI50 (U-251) | GI50 (OVCAR-4) | GI50 (MOLT-4) | GI50 (SK-MEL-5) | GI50 (OVCAR-5) | GI50 (M14) | GI50 (NCI-H226) | GI50 (T47D) | GI50 (SF-295) | GI50 (HOP-62) | GI50 (MCF7) | GI50 (K562) | GI50 (KM12) | GI50 (HCC 2998) | GI50 (OVCAR-3) | GI50 (COLO 205) | GI50 (SR) | GI50 (MDA-N) |
| --- | --- | --- | --- | --- | --- | --- | --- | --- | --- | --- | --- | --- | --- | --- | --- | --- | --- | --- | --- | --- |
| COc1cc2c(OC)c3cc(C)oc(=O)c3c(O)c2c(O)c1-c1c(OC)cc2c(OC)c3cc(C)oc(=O)c3c(O)c2c1O | 25.2 µM (inactive) | 15.2 µM (inactive) | 15.8 µM (inactive) | 39.1 µM (inactive) | 15.7 µM (inactive) | 16.7 µM (inactive) | 19.7 µM (inactive) | 18.1 µM (inactive) | 20.3 µM (inactive) | 36.4 µM (inactive) | 18.6 µM (inactive) | 15.2 µM (inactive) | 25.6 µM (inactive) | 16.4 µM (inactive) | 19.1 µM (inactive) | 18.9 µM (inactive) | 16.6 µM (inactive) |  |  |  |
| CN(C)/C=C/C(=O)c1cccc(C(=O)/C=C/N(C)C)n1 | > 100 µM (inactive) | > 100 µM (inactive) | > 100 µM (inactive) | > 100 µM (inactive) | > 100 µM (inactive) | > 100 µM (inactive) | > 100 µM (inactive) | > 100 µM (inactive) | > 100 µM (inactive) |  | > 100 µM (inactive) | > 100 µM (inactive) |  | > 100 µM (inactive) | > 100 µM (inactive) | > 100 µM (inactive) | > 100 µM (inactive) | > 100 µM (inactive) | > 100 µM (inactive) |  |
| CC(C)=CC(=O)OC1C2C(C)=CC(=O)C(O)C2(C)C2C3(O)OCC24C(CC(=O)OC14)C(C)C3O (configuration not stated) | 0.00349 µM (active) | 0.00269 µM (active) | 0.00324 µM (active) | 0.0135 µM (active) | 0.0011 µM (active) | 0.00308 µM (active) | 0.0101 µM (active) | 0.0023 µM (active) | 0.00984 µM (active) | 0.00288 µM (active) | 0.0277 µM (active) | 0.00942 µM (active) |  | 0.00521 µM (active) | 0.0139 µM (active) | 0.0128 µM (active) | 0.00624 µM (active) | 0.0975 µM (active) | 0.000774 µM (active) | 0.00208 µM (active) |
| N#Cc1ccc(Oc2nc3ccccc3nc2-c2ccccc2)cc1 | > 100 µM (inactive) | > 100 µM (inactive) | > 100 µM (inactive) | > 100 µM (inactive) | > 100 µM (inactive) | > 100 µM (inactive) | > 100 µM (inactive) |  | > 100 µM (inactive) |  | > 100 µM (inactive) | > 100 µM (inactive) | > 100 µM (inactive) | > 100 µM (inactive) | > 100 µM (inactive) | > 100 µM (inactive) | > 100 µM (inactive) | > 100 µM (inactive) |  | > 100 µM (inactive) |
| CCOC(=O)CC(C)C1(C(=O)OCC)CCCCC1=O (configuration not stated) | > 100 µM (inactive) | > 100 µM (inactive) | > 100 µM (inactive) | > 100 µM (inactive) | > 100 µM (inactive) | > 100 µM (inactive) | > 100 µM (inactive) | > 100 µM (inactive) | > 100 µM (inactive) |  | > 100 µM (inactive) | > 100 µM (inactive) |  | > 100 µM (inactive) | > 100 µM (inactive) | > 100 µM (inactive) | > 100 µM (inactive) | 86.7 µM (inactive) | 25.6 µM (inactive) |  |
| N#Cc1nsnc1-c1nc(-c2nsnc2C#N)nc(-c2nsnc2C#N)n1 | > 100 µM (inactive) | 76.6 µM (inactive) | > 100 µM (inactive) | > 100 µM (inactive) | > 100 µM (inactive) | > 100 µM (inactive) | > 100 µM (inactive) |  | > 100 µM (inactive) |  | > 100 µM (inactive) | > 100 µM (inactive) | > 100 µM (inactive) | > 100 µM (inactive) | 96.2 µM (inactive) | > 100 µM (inactive) | > 100 µM (inactive) | > 100 µM (inactive) | > 100 µM (inactive) | > 100 µM (inactive) |
| C[C@]12CCC(N3CCCC3)CC1=CC[C@@H]1[C@@H]2CC[C@]2(C)C(O)[C@H](n3ccnc3)C[C@@H]12 (some centres not stated) | > 100 µM (inactive) | 5.58 µM (inactive) | 75.9 µM (inactive) | 73.6 µM (inactive) | 14.2 µM (inactive) | 53 µM (inactive) | 53.8 µM (inactive) | 15.7 µM (inactive) | > 100 µM (inactive) |  | 35.2 µM (inactive) |  | 45 µM (inactive) | 27.2 µM (inactive) | > 10 µM (inactive) |  | 32.3 µM (inactive) | 30.3 µM (inactive) | 15.3 µM (inactive) | 44.2 µM (inactive) |
| CCCOP(=S)(N1CC1)N1CC1 | > 100 µM (inactive) | > 100 µM (inactive) | > 100 µM (inactive) | > 100 µM (inactive) | > 100 µM (inactive) | > 100 µM (inactive) | > 100 µM (inactive) | > 100 µM (inactive) | 75.9 µM (inactive) |  | > 100 µM (inactive) | > 100 µM (inactive) |  | > 100 µM (inactive) | > 100 µM (inactive) | > 100 µM (inactive) | > 100 µM (inactive) | > 100 µM (inactive) | > 100 µM (inactive) |  |
| CCOC(=O)/C(ON)=C(/CC/C(C(=O)OC)=C(\ON)C(=O)OCC)C(=O)OC | > 100 µM (inactive) | > 100 µM (inactive) | > 100 µM (inactive) | > 100 µM (inactive) | > 100 µM (inactive) | > 100 µM (inactive) | > 100 µM (inactive) | > 100 µM (inactive) | > 100 µM (inactive) |  | > 100 µM (inactive) | > 100 µM (inactive) |  | > 100 µM (inactive) | > 100 µM (inactive) | > 100 µM (inactive) | > 100 µM (inactive) | > 100 µM (inactive) | > 100 µM (inactive) |  |
| c1ccc2c(c1)SC1=Nc3sc4ccccc4[n+]3CN12 | 19.9 µM (inactive) | 32.1 µM (inactive) | 3.3 µM (inactive) |  | 11.7 µM (inactive) | 2.52 µM (inactive) | 15 µM (inactive) | 22 µM (inactive) |  | 18.5 µM (inactive) | 29.4 µM (inactive) | 21.9 µM (inactive) | 16.4 µM (inactive) | 6.12 µM (inactive) | 2.34 µM (inactive) |  | 2.88 µM (inactive) | 2.13 µM (inactive) | 16.9 µM (inactive) |  |
| Nc1ccc(Oc2ccc(C3(c4ccc(Oc5ccc(N)c(O)c5)cc4)C4CC5C6CC7CC5C3C(C7)C6C4)cc2)cc1O | 3.3 µM (inactive) | 2.44 µM (inactive) | 1.81 µM (inactive) | 2.35 µM (inactive) | 2.07 µM (inactive) | 3.86 µM (inactive) | 1.31 µM (inactive) | 1.45 µM (inactive) | 2.72 µM (inactive) |  | 2.77 µM (inactive) | 1.73 µM (inactive) | 1.69 µM (inactive) | 2.19 µM (inactive) | 1.86 µM (inactive) | 1.85 µM (inactive) | 1.52 µM (inactive) | 2.37 µM (inactive) | 2.25 µM (inactive) | 1.36 µM (inactive) |
| ClC/C=C/COC1CCCCO1 (configuration not stated) | > 100 µM (inactive) | 20.6 µM (inactive) | 65.9 µM (inactive) | > 100 µM (inactive) | 29 µM (inactive) | > 100 µM (inactive) | > 100 µM (inactive) | > 100 µM (inactive) | > 100 µM (inactive) |  | > 100 µM (inactive) | > 100 µM (inactive) |  | > 100 µM (inactive) | > 100 µM (inactive) | > 100 µM (inactive) | > 100 µM (inactive) | 94.6 µM (inactive) | 18.2 µM (inactive) |  |
| CC1=CC=C2C(C)(C)CC[C@@H]3OC(=O)[C@H]1[C@]23C | > 100 µM (inactive) | > 100 µM (inactive) | > 100 µM (inactive) | > 100 µM (inactive) | > 100 µM (inactive) | > 100 µM (inactive) | > 100 µM (inactive) | > 100 µM (inactive) | > 100 µM (inactive) |  | > 100 µM (inactive) | > 100 µM (inactive) |  | > 100 µM (inactive) | > 100 µM (inactive) | > 100 µM (inactive) | > 100 µM (inactive) | > 100 µM (inactive) | > 100 µM (inactive) |  |
| Cc1cc2c(cc1C)[n+]([O-])c(C(=O)C/C(=N/NC(=S)NN)C(=O)Nc1cccc(C(F)(F)F)c1)c[n+]2[O-] | 34 µM (inactive) | > 100 µM (inactive) | > 100 µM (inactive) | > 100 µM (inactive) | > 100 µM (inactive) | > 100 µM (inactive) | > 100 µM (inactive) | > 100 µM (inactive) | > 100 µM (inactive) |  | > 100 µM (inactive) | > 100 µM (inactive) |  | > 100 µM (inactive) | > 100 µM (inactive) | > 100 µM (inactive) | > 100 µM (inactive) | > 100 µM (inactive) | 65.6 µM (inactive) |  |
| Cc1n[nH]c(=O)n1/N=C/c1ccncc1 | > 100 µM (inactive) |  | > 100 µM (inactive) | > 100 µM (inactive) | > 100 µM (inactive) | > 100 µM (inactive) | > 100 µM (inactive) | > 100 µM (inactive) | > 100 µM (inactive) | > 100 µM (inactive) | > 100 µM (inactive) | > 100 µM (inactive) |  | > 100 µM (inactive) | > 100 µM (inactive) | > 100 µM (inactive) | > 100 µM (inactive) | > 100 µM (inactive) |  | > 100 µM (inactive) |
| Oc1[nH]c(NCc2ccc(Cl)cc2)nc2ncnc1-2 | > 100 µM (inactive) |  | > 100 µM (inactive) | > 100 µM (inactive) | > 100 µM (inactive) | > 100 µM (inactive) | > 100 µM (inactive) | > 100 µM (inactive) | > 100 µM (inactive) | > 100 µM (inactive) | > 100 µM (inactive) | > 100 µM (inactive) | 87.1 µM (inactive) | > 100 µM (inactive) | > 100 µM (inactive) | > 100 µM (inactive) | > 100 µM (inactive) | > 100 µM (inactive) |  | > 100 µM (inactive) |
